Experimental data published in US20160184459A1, “CANCER CELL SPECIFIC IMAGING PROBES AND METHODS OF USE” (THE RESEARCH FOUNDATION FOR THE STATE UNIVERSITY OF NEW YORK, priority 2013, published 2016).
Where two headings read alike, the source gives them in different places. Values belong to the compound of their own block, whether it stands above or below them. Residues, ends and D or L forms follow the SMILES beside them. *: point of attachment. Cbz = O=C(OCc1ccccc1)*

Experiments:
BxPC3 cells (shGFP) = experiment: MTT cell viability assay, BxPC3 shGFP; type: cell-based; details: Homo sapiens, BXPC-3, 72 hr
Method: (§1) FIG. 24. Effect of the prodrug on cell viability of BxPC3 cells (shGFP and shSki). Cells were treated with the indicated dose of drugs (BKAc-5FCR or 5FCR) for 72 hr followed by MTT assay. Data represent mean values of triplicate measurements±standard deviation. IC50 values were derived from nonlinear curve fit of the dose response data using an outlier's exclusion, variable slope model (GraphPad Prism software). All values are means of at least two independent experiments.
(§2) The in vitro efficacy of the compounds in a series of BxPC3 and CFPac-1 derivatives with reduced Class I HDAC activity following Ski knockdown (shSki), HDAC3 knockdown and control (shGFP) was assessed. The growth inhibitory/viability effects of the compounds (IC50 value, the concentration resulting in 50% growth inhibition) on the various cell lines were determined by dose response curve analysis (GraphPad Prism software) of MTT [3-(4,5dimethylthiazol-2-yl)-2,5-diphenyl-tetrazolium bromide] cell viability assay. If the prodrugs are activated in an HDAC-dependent manner, the cells with reduced HDAC activity would be predicted to be more resistant to the prodrug treatment than control cells, while the effect of free parental drugs on both cells would be expected to be similar.

BxPC3 cells (shSki) = experiment: MTT cell viability assay, BxPC3 shSki; type: cell-based; details: Homo sapiens, BXPC-3, 72 hr
Method: as §1, §2

BXPC3 cells = experiment: MTS cell viability assay with or without TSA; type: cell-based, human; details: 20 μM, 72 hr, TSA 50 nM
Method: FIG. 25. Selective cytotoxicity by BKAc-5FCR. Human pancreatic BXPC3 cells were treated with DMSO (vehicle), BKAc-5FCR (20 μM), or 5FCR (20 μM) for 72 hr with or without TSA (50 nM) followed by MTS cell viability assay. Representative phase contrast images of cells treated with DMSO (vehicle) or BKAc-5FCR (20 μM) for 72 hr with or without TSA (50 nM) are shown.

[1] = test system: HDAC and endogenous protease (cathepsin L) activity in BxPC3 and CFPac-1 cells; experiment: Live cell enzymatic assay with Boc-Lys(Ac)-AMC, release of AMC; type: cell-based; details: for Activation of substrate Boc-Lys(Ac)-AMC: substrate 25 μM, 6 hr
Method: FIG. 5. A. HDAC assay using different substrates in BxPC3 cells (shGFP and shSki). Cells were incubated with Boc-Lys(Ac)-AMC or Ac-Arg-Gly-Lys(Ac)-AMC (25 μM) for 1 hr with DMSO (vehicle) or TSA (1 μM) as indicated, followed by cell lysis and trypsin treatment, and fluorescence measurements. Data represent mean values of triplicate measurements±standard deviation. RFU, relative fluorescent units. B. Similar experiment was done as in A but without cell lysis and trypsin treatment. Cells were incubated with the substrates for 2.5 hr.
FIG. 6. A. Release of AMC by combined HDAC and endogenous protease-dependent enzymatic reaction in BxPC3 and CFPac-1 cells (shGFP and shSki). Cells were incubated with substrate Boc-Lys(Ac)-AMC (25 μM) for 6 hr with DMSO (vehicle), TSA (1 μM), or Z-FY-CHO (10 μM) as indicated, followed by fluorescence measurements. Data represent mean values of triplicate measurements±standard deviation. RFU, relative fluorescent units. B. Time course of AMC release in BxPC3 cells (shGFP and shSki). Each cells were incubated with Boc-Lys(Ac)-AMC (25 μM) for 2.5, 6.0, and 23 hr with DMSO (vehicle) or TSA (1 μM) as indicated.
Tissue culture based standard HDAC assays were performed by commercially available fluorimetric HDAC assay kit (SensoLyte, AnaSpec) according to the manufacturer's instruction with modification of using 25 μM Boc-Lys(Ac)-AMC (Bachem) as substrate and measuring parameter (Ex/Em=355 nm/460 nm) for AMC. […] After 15 m incubation at room temperature, the fluorescent signal of AMC was measured by SpectraMax M5 microplate reader (Molecular Devices) at Ex/Em=355 nm/460 nm. Live cell lysyl endopeptidase assay was performed by applying the substrate 25 μM Boc-Lys-AMC (Bachem) [either with DMSO or 100 μM Z-FY-CHO (EMD)] to the overnight culture seeded from 6×10^4 cells in 100 μl medium in 96-well tissue culture plates, followed by 20 h incubation at 37° C. with 5% CO2 atmosphere, then the fluorescent signal of AMC was measured. Live cell enzymatic assay using Boc-Lys(Ac)-AMC was performed by applying the substrate 25 μM Boc-Lys(Ac)-AMC (either with DMSO, 1 μM TSA or 100 μM Z-FY-CHO) to the overnight culture seeded from 6×10^4 cells in 100 μl medium in 96-well tissue culture plates, followed by 20 h incubation at 37° C. with 5% CO2 atmosphere, then the fluorescent signal of AMC was measured. […]
Fluorescence measurement was done at λex=390 nm and λem=460 nm for AMC. […] Cells were then lysed and the lysates incubated with exogenously added excess trypsin to cleave only those lysine residues that are de-acetylated and activate fluorescence. […]

[2] = test system: non-malignant Caco-2 cells; experiment: MTS cell viability assay, Caco-2; type: cell-based, human; details: parental Puro, MTS, 3 d
Method: FIG. 13. Inhibition of cell viability by BKAc-Puro is presented in dose-response curve format for the same cell lines as in FIG. 8. The cell lines were treated with DMSO or the indicated doses of agent (4.22, 8.44, 16.9, 33.8, 67.5, or 135 μM) for 5 d followed by MTS assay. Data represent mean values of triplicate measurements±s.d. (n=3). IC50 values were fit by logistic regression.
FIG. 14. Inhibition of cell viability by parental Puro. The cell lines were treated with the indicated doses of Puro (0, 1.1, 2.1, 4.2, or 8.4 μM) for 3 d followed by MTS assay. Data represent mean values of triplicate measurements±s.d.
Cell number was determined by cell counting using improved Neubauer hemacytometer. Cell viability was calculated as the number of viable cells divided by the total number of cells using Trypan Blue Stain (Invitrogen) to distinguish non-viable cells. Data were obtained from duplicated samples with quadruplicate measurements. MTS based cell viability assay was performed using CellTiter 96 Aqueous Cell Proliferation Assay (Promega) according to the manufacturer's instruction. Either 1 μl of DMSO alone or variable concentrations of BKAc-Puro or Puro in DMSO were added to the cell lines seeded at 5×10^4 cells per well in 96-well tissue culture plates in 100 μl of the growth medium, followed by 3-5 d incubation at 37° C. with 5% CO2 atmosphere. Then 20 μl of the MTS reagent was added to each well. After additional 2-3 h incubation, the absorbance of the formazan at 490 nm was measured by the microplate reader. Percent cell viability was expressed relative to the wells containing cells treated with DMSO alone. Data were obtained from triplicate measurements. […] Determination of non-viable cells using PI staining was performed by adding 1 μg/ml of PI solution (Sigma) to the cell culture, prior to the examination under fluorescence microscopy (Axiovert 3, Carl Zeiss) through a×32 objective equipped with a digital imaging processor (Infinity 3, Lumenera).

[3] = test system: Puro-incorporated proteins in HCT116, HT29, CCD841-CoN and Caco-2 cells; experiment: Immunoblotting of Puro-incorporated proteins in cell lysates; type: cell-based, human; details: Puro 2.1 μM, 16 h, with or without TSA 0.5 μM
Method: (§3) FIG. 27. Levels of Puro-incorporated proteins in the cells were monitored by immunoblotting. Indicated cell lines were treated either with vehicle control DMSO or Boc-KAc-Puro (16.9 μM) in the presence or absence of TSA (0.5 μM) for 20 h, followed by preparation of cell lysates. The lower panel (anti-α-Tubulin) serves as a loading control.
as §3, with “28.” for “27.”, “Puro (2.1” for “Boc-KAc-Puro (16.9”, “16” for “20”, “lysates. […]” for “lysates.”
Cultured cells or tissue samples were sonicated in RIPA lysis buffer (1% NP-40, 0.1% SDS, 50 mM Tris-HCl pH 7.4, 150 mM NaCl, 0.5% sodium deoxycholate, 1 mM EDTA) supplemented with PMSF and protease inhibitor cocktail (Roche) on ice followed by clarification. Protein lysates were separated on sodium dodecyl sulfate-polyacrylamide gels and transferred onto nitrocellulose membranes (Whatman). The primary antibodies used were anti-puromycin (3RH11, KeraFAST) and anti-α-tubulin (Sigma-Aldrich). Proteins of interest were detected with anti-mouse secondary antibody by chemiluminescence (ECL Kit, GE Healthcare Life Sciences).

[4] = single administration, cited from earlier work
cells = experiment: 72 hr in vitro cytotoxicity with TSA; type: cell-based; details: TSA 1 μM
Text: The prodrugs that are synthesized may have some basal level of cytotoxicity before they are activated by HDAC3. One way to determine the IC50 values of the uncleaved forms of the prodrugs would be to use HDAC inhibitors both in vitro and in vivo. […] […] […] For example, among available HDAC inhibitors, SAHA (Vorinostat), a FDA approved pharmaceutical HDAC inhibitor (Bradner, J. E. et al. 2010), is known to inhibit all of these HDACs with much lower cytotoxicity than TSA. Thus, SAHA is an alternative HDAC inhibitor for the prodrug evaluation as well. By comparing the prodrug ICo values for cytotoxicity under conditions of HDAC inhibition with those values where HDACs are active we are able to provide data on the HDAC dependence of our new class of prodrugs.

[5] = biological target: T1, lysyl endopeptidase activity (CTSL) in live cells (Homo sapiens, UniProt P07711); experiment: Live cell lysyl endopeptidase assay with Boc-Lys-AMC; type: cell-based; details: Z-FY-CHO 100 μM, substrate 25 μM, 20 h
T1 construct: endogenous in cells; host or cells: Panel of cultured lines: Caco-2, COGA-10, HCA-7, HT29, HCT116, CCD841-CoN, MiaPaca-2, BXPC-3, HepG2, HeLa (human) and Eph4 (mouse)
T1 sequence (P07711 114-288 limits assumed): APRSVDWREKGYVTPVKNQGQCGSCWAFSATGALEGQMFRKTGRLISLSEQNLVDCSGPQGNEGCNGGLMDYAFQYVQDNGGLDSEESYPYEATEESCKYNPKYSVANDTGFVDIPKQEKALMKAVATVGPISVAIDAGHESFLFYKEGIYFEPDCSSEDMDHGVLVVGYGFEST
T1 sequence (P07711 292-333 limits assumed): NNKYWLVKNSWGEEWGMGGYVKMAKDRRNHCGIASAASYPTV
Method: FIG. 2. Comparative live cell lysyl endopeptidase activity of the same cell lines as in FIG. 1 using substrate Boc-Lys-AMC either with vehicle control DMSO or Z-FY-CHO (100 μM). Data represent mean values of triplicate measurements±s.d. RFU, relative fluorescent units.
Tissue culture based standard HDAC assays were performed by commercially available fluorimetric HDAC assay kit (SensoLyte, AnaSpec) according to the manufacturer's instruction with modification of using 25 μM Boc-Lys(Ac)-AMC (Bachem) as substrate and measuring parameter (Ex/Em=355 nm/460 nm) for AMC. Basically, HDAC substrate 25 μM Boc-Lys(Ac)-AMC [either with DMSO or 1 μM TSA (Sigma)] was applied to the overnight culture seeded from 6×10^4 cells in 100 μl medium in 96-well tissue culture plates, followed by 2 to 3 h incubation at 37° C. with 5% CO2 atmosphere. […] After 15 m incubation at room temperature, the fluorescent signal of AMC was measured by SpectraMax M5 microplate reader (Molecular Devices) at Ex/Em=355 nm/460 nm. Live cell lysyl endopeptidase assay was performed by applying the substrate 25 μM Boc-Lys-AMC (Bachem) [either with DMSO or 100 μM Z-FY-CHO (EMD)] to the overnight culture seeded from 6×10^4 cells in 100 μl medium in 96-well tissue culture plates, followed by 20 h incubation at 37° C. with 5% CO2 atmosphere, then the fluorescent signal of AMC was measured. […]

IC50 (BxPC3 cells (shGFP)): 1.3 µM | IC50 (BxPC3 cells (shSki)): 1.2 µM
Compound: Nc1nc(=O)n([C@@H]2O[C@H](CO)[C@@H](O)[C@H]2O)cc1F [5FCR, 5-fluorocytidine]

Compound: CC(=O)NCCCCC(NC(=O)OC(C)(C)C)C(=O)Nc1nc(=O)n([C@@H]2O[C@H](CO)[C@@H](O)[C@H]2O)cc1F (stereo partly drawn) [BKAc-5FCR, t-butyl (6-acetamido-1-((1-((2R,3R,4S,5R)-3,4-dihydroxy-5-(hydroxymethyl)tetrahydrofuran-2-yl)-5-fluoro-2-oxo-1,2-dihydropyrimidin-4-yl)amino)-1-oxohexan-2-yl) carbamate]
Cytotoxic effect in the presence of HDAC inhibitor TSA (BXPC3 cells): substantially compromised

Compound: CC(=O)NCCCC[C@H](NC(=O)OC(C)(C)C)C(=O)Nc1ccc2c(C)cc(=O)oc2c1 [Boc-Lys(Ac)-AMC]
Time course of AMC release ([1]; BxPC3, 25 μM, over 20 hr): released linearly | Activation in live cells relative to total HDAC activity ([1]; BxPC3 live cells, 25 μM, 2.5 hr, without lysis and trypsin): approximately 50%

Compound: COc1ccc(C[C@H](N)C(=O)N[C@H]2[C@@H](O)[C@H](n3cnc4c(N(C)C)ncnc43)O[C@@H]2CO)cc1 [Puro, puromycin]
Effect on cell viability [2]: effective | Puro incorporation between cell lines regardless of TSA treatment [3]: no difference | LD50 ([4]; intraperitoneally): 580 mg/kg | LD50 ([4]; intravenously): 335 mg/kg | LD50 ([4]; orally): 720 mg/kg

Compound: CC(/C=C/C(=O)NO)=C\[C@@H](C)C(=O)c1ccc(N(C)C)cc1 [TSA, Trichostatin A]
Cytotoxicity (cells): cytotoxic effect | Activation of substrate Boc-Lys(Ac)-AMC ([1]; TSA 1 μM): completely inhibited activation

Release of AMC [5]: significantly blocked
Compound: O=C[C@H](Cc1ccc(O)cc1)NC(=O)[C@H](Cc1ccccc1)NC(=O)OCc1ccccc1 [Z-FY-CHO] (Cbz-Phe-Tyr-aldehyde)
Activation of substrate Boc-Lys(Ac)-AMC ([1]; Z-FY-CHO 10 μM): completely abrogated
